{"source": "patent US12295935B2", "about": "“Method for therapeutic treatment of rosacea” (Sol-Gel Technologies Ltd., priority 2019, dated 2025)", "origin": "cited, not measured here", "system": "rosacea", "settings": "BPO as sole active agent", "data": [{"smiles": "O=C(OOC(=O)c1ccccc1)c1ccccc1", "note": "[BPO, Benzoyl peroxide]", "values": [{"measurement": "response of lesions", "result": "unresponsive"}]}]}
